Molecular target: T1, CDK2 (Homo sapiens, UniProt P24941)
T1 construct: endogenous in cells; host or cells: OVCAR3 cells
Experiment: Phospho-RB measurement in OVCAR3 cells (HTRF phospho-RB cellular kit)
Assay type: cell-based
Conditions: inhibition of RB phosphorylation at S807/811 (HTRF, TR-FRET ratio 665/620), 24 h compound treatment, 0.3 to 10,000 nM
Method in brief: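 IC50 came from a four-parameter logistic fit of the DMSO-normalized TR-FRET ratio (665/620 nm). That ratio reflects RB phosphorylation at S807/811, read with an HTRF antibody pair 4 h after adding lysate at room temperature.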

Structure (SMILES) | IC50
CNCCOc1cccc2c1CCN2S(=O)(=O)Nc1cccc(-c2nc(C(C)(C)C)sc2-c2ccnc(NC3CCN(S(C)(=O)=O)CC3)n2)c1F [Example 181, N-(3-(2-(tert-butyl)-5-(2-((1-(methylsulfonyl)-piperidin-4-yl)amino)-pyrimidin-4-yl)thiazol-4-yl)-2-fluoro-phenyl)-4-(2-(methylamino)-ethoxy)-indoline-1-sulfonamide] | 1890 nM
CC(C)(C)c1nc(-c2cccc(NS(=O)(=O)N3CCC4(CCC4)C3)c2F)c(-c2ccnc(NC3CC4(C3)CS(=O)(=O)C4)n2)s1 [Example 182, N-(3-(2-(tert-butyl)-5-(2-((2,2-dioxido-2-thiaspiro[3.3]heptan-6-yl)amino)-pyrimidin-4-yl)thiazol-4-yl)-2-fluoro-phenyl)-6-azaspiro[3.4] octane-6-sulfonamide] | 1190 nM
CC(C)(C)c1nc(-c2cccc(NS(=O)(=O)N3Cc4ccncc4C3)c2F)c(-c2ccnc(NC3CC4(C3)CS(=O)(=O)C4)n2)s1 [Example 187, N-(3-(2-(tert-butyl)-5-(2-((2,2-dioxido-2-thiaspiro[3.3]heptan-6-yl)amino)-pyrimidin-4-yl)thiazol-4-yl)-2-fluoro-phenyl)-1,3-dihydro-2H-pyrrolo[3,4-c]-pyridine-2-sulfonamide] | 194 nM
CCN(CC)S(=O)(=O)Nc1cccc(-c2nc(C(C)(C)C)sc2-c2ccnc(NC3CC4(C3)CS(=O)(=O)C4)n2)c1F [Example 191, N-(3-(2-(tert-butyl)-5-(2-((2,2-dioxido-2-thiaspiro[3.3]heptan-6-yl)amino)-pyrimidin-4-yl)thiazol-4-yl)-2-fluoro-phenyl)-diethylamine-sulfonamide] | 8620 nM
CC(C)(C)c1nc(-c2cccc(NS(=O)(=O)N3CCc4ccccc43)c2F)c(-c2ccnc(NC3CC4(C3)CS(=O)(=O)C4)n2)s1 [Example 192, N-(3-(2-(tert-butyl)-5-(2-((2,2-dioxido-2-thiaspiro[3.3]heptan-6-yl)amino)-pyrimidin-4-yl)thiazol-4-yl)-2-fluoro-phenyl)indoline-1-sulfonamide] | 88.2 nM
CC(C)(C)c1nc(-c2cccc(NS(=O)(=O)N3CCc4c(C#N)cccc43)c2F)c(-c2ccnc(NC3CC4(C3)CS(=O)(=O)C4)n2)s1 [Example 193, N-(3-(2-(tert-butyl)-5-(2-((2,2-dioxido-2-thiaspiro[3.3]heptan-6-yl)amino)-pyrimidin-4-yl)thiazol-4-yl)-2-fluoro-phenyl)-4-cyanoindoline-1-sulfonamide] | 125 nM
CCN(C)S(=O)(=O)Nc1cccc(-c2nc(C(C)(C)C)sc2-c2ccnc(NC3CC4(C3)CS(=O)(=O)C4)n2)c1F [Example 194, N-(3-(2-(tert-butyl)-5-(2-((2,2-dioxido-2-thiaspiro[3.3]heptan-6-yl)amino)-pyrimidin-4-yl)thiazol-4-yl)-2-fluoro-phenyl)-N-methyl-N-ethylamine-sulfonamide] | 1850 nM
CN(C)Cc1cccc2c1CN(S(=O)(=O)Nc1cccc(-c3nc(C(C)(C)C)sc3-c3ccnc(NC4CC5(C4)CS(=O)(=O)C5)n3)c1F)C2 [Example 197, N-(3-(2-(tert-butyl)-5-(2-((2,2-dioxido-2-thiaspiro[3.3]heptan-6-yl)amino)-pyrimidin-4-yl)thiazol-4-yl)-2-fluoro-phenyl)-4-((dimethylamino)methyl)-isoindoline-2-sulfonamide] | 1080 nM
CNC(=O)c1ccc2c(c1)N(S(=O)(=O)Nc1cccc(-c3nc(C(C)(C)C)sc3-c3ccnc(NC4CC5(C4)CS(=O)(=O)C5)n3)c1F)CC2 [Example 203, 1-(N-(3-(2-(tert-butyl)-5-(2-((2,2-dioxido-2-thiaspiro[3.3]heptan-6-yl)amino)pyrimidin-4-yl)thiazol-4-yl)-2-fluorophenyl)sulfamoyl)-N-methyl-indoline-6-carboxamide] | 931 nM
CCOc1cccc2c1CN(S(=O)(=O)Nc1cccc(-c3nc(C(C)(C)C)sc3-c3ccnc(NC4CC5(C4)CS(=O)(=O)C5)n3)c1F)C2 [Example 204, N-(3-(2-(tert-butyl)-5-(2-((2,2-dioxido-2-thiaspiro[3.3]heptan-6-yl)amino)-pyrimidin-4-yl)thiazol-4-yl)-2-fluoro-phenyl)-4-ethoxyisoindoline-2-sulfonamide] | 69.2 nM

Continued, values first:

IC50 | Structure (SMILES)
133 nM | CNS(=O)(=O)N1CCC(Nc2nccc(-c3sc(C(C)(C)C)nc3-c3cccc(NS(=O)(=O)N4CCc5ccc(C#N)cc54)c3F)n2)CC1 [Example 183, N-(3-(2-(tert-butyl)-5-(2-((1-(N-methyl-sulfamoyl)piperidin-4-yl)amino)-pyrimidin-4-yl)thiazol-4-yl)-2~fluoro-phenyl)-6-cyano-indoline-1-sulfonamide]
1540 nM | CN(C)S(=O)(=O)Nc1cccc(-c2nc(C(C)(C)C)sc2-c2ccnc(NC3CC4(C3)CS(=O)(=O)C4)n2)c1F [Example 184, N-(3-(2-(tert-butyl)-5-(2-((2,2-dioxido-2-thiaspiro[3.3]heptan-6-yl)amino)-pyrimidin-4-yl)thiazol-4-yl)-2-fluoro-phenyl)dimethyl-aminesulfonamide]
55 nM | CC(C)(C)c1nc(-c2cccc(NS(=O)(=O)N3Cc4cccc(C#N)c4C3)c2F)c(-c2ccnc(NC3CCN(S(C)(=O)=O)CC3)n2)s1 [Example 185, N-(3-(2-(tert-butyl)-5-(2-((1-(methylsulfonyl)-piperidin-4-yl)amino)-pyrimidin-4-yl)thiazol-4-yl)-2-fluoro-phenyl)-4-cyanoisoindoline-2-sulfonamide]
1180 nM | CC(C)(C)c1nc(-c2cccc(NS(=O)(=O)N3CCC(F)(F)C3)c2F)c(-c2ccnc(NC3CC4(C3)CS(=O)(=O)C4)n2)s1 [Example 186, N-(3-(2-(tert-butyl)-5-(2-((2,2-dioxido-2-thiaspiro[3.3]heptan-6-yl)amino)-pyrimidin-4-yl)thiazol-4-yl)-2-fluoro-phenyl)-3,3-difluoropyrrolidine-1-sulfonamide]
1660 nM | CN(C)CCOc1ccc2c(c1)N(S(=O)(=O)Nc1cccc(-c3nc(C(C)(C)C)sc3-c3ccnc(NC4CCN(S(C)(=O)=O)CC4)n3)c1F)CC2 [Example 188, N-(3-(2-(tert-butyl)-5-(2-((1-(methylsulfonyl)-piperidin-4-yl)amino)-pyrimidin-4-yl)thiazol-4-yl)-2-fluoro-phenyl)-6-(2-(dimethylamino)-ethoxy)-indoline-1-sulfonamide]
1550 nM | CN(C)Cc1ccc2c(c1)CCN2S(=O)(=O)Nc1cccc(-c2nc(C(C)(C)C)sc2-c2ccnc(NC3CCN(S(C)(=O)=O)CC3)n2)c1F [Example 189, N-(3-(2-(tert-butyl)-5-(2-((1-(methylsulfonyl)-piperidin-4-yl)amino)-pyrimidin-4-yl)thiazol-4-yl)-2-fluoro-phenyl)-5-((dimethylamino)-methyl)-indoline-1-sulfonamide]
259 nM | CC(C)(C)c1nc(-c2cccc(NS(=O)(=O)N3CCc4ncccc43)c2F)c(-c2ccnc(NC3CC4(C3)CS(=O)(=O)C4)n2)s1 [Example 190, N-(3-(2-(tert-butyl)-5-(2-((2,2-dioxido-2-thiaspiro[3.3]heptan-6-yl)amino)-pyrimidin-4-yl)thiazol-4-yl)-2-fluoro-phenyl)-2,3-dihydro-1H-pyrrolo[3,2-b]-pyridine-1-sulfonamide]
320 nM | CC(C)(C)c1nc(-c2cccc(NS(=O)(=O)N3CCc4cc(C#N)ccc43)c2F)c(-c2ccnc(NC3CC4(C3)CS(=O)(=O)C4)n2)s1 [Example 195, N-(3-(2-(tert-butyl)-5-(2-((2,2-dioxido-2-thiaspiro[3.3]heptan-6-yl)amino)-pyrimidin-4-yl)thiazol-4-yl)-2-fluoro-phenyl)-5-cyanoindoline-1-sulfonamide]
667 nM | CN(C)C(=O)c1ccc2c(c1)N(S(=O)(=O)Nc1cccc(-c3nc(C(C)(C)C)sc3-c3ccnc(NC4CC5(C4)CS(=O)(=O)C5)n3)c1F)CC2 [Example 198, 1-(N-(3-(2-(tert-butyl)-5-(2-((2,2-dioxido-2-thiaspiro[3.3]heptan-6-yl)amino)pyrimidin-4-yl)thiazol-4-yl)-2-fluorophenyl)sulfamoyl)-N,N-dimethylindoline-6-carboxamide]
> 3840 nM | CC(C)(C)c1nc(-c2cccc(NS(=O)(=O)N3CCC4(CC4)C3)c2F)c(-c2ccnc(NC3CC4(C3)CN(S(C)(=O)=O)C4)n2)s1 [Example 199, N-(3-(2-(tert-butyl)-5-(2-((2-(methylsulfonyl)-2-azaspiro [3.3]heptan-6-yl)amino)pyrimidin-4-yl)thiazol-4-yl)-2-fluorophenyl)-5-azaspiro [2.4]heptane-5-sulfonamide]
247 nM | CC(C)(C)c1nc(-c2cccc(NS(=O)(=O)N3CCc4ccc(C#N)cc43)c2F)c(-c2ccnc(NC3CC4(C3)CN(S(C)(=O)=O)C4)n2)s1 [Example 200, N-(3-(2-(tert-butyl)-5-(2-((2-(methylsulfonyl)-2-azaspiro [3.3]heptan-6-yl)amino)pyrimidin-4-yl)thiazol-4-yl)-2-fluorophenyl)-6-cyanoindoline-1-sulfonamide]
76.3 nM | CC(C)(C)c1nc(-c2cccc(NS(=O)(=O)N3Cc4cccc(C(F)(F)F)c4C3)c2F)c(-c2ccnc(NC3CC4(C3)CS(=O)(=O)C4)n2)s1 [Example 201, N-(3-(2-(tert-butyl)-5-(2-((2,2-dioxido-2-thiaspiro[3.3]heptan-6-yl)amino)-pyrimidin-4-yl)thiazol-4-yl)-2-fluorophenyl)-4-(trifluoromethyl)-isoindoline-2-sulfonamide]
86.2 nM | COc1cccc2c1CN(S(=O)(=O)Nc1cccc(-c3nc(C(C)(C)C)sc3-c3ccnc(NC4CC5(C4)CS(=O)(=O)C5)n3)c1F)C2 [Example 202, N-(3-(2-(tert-butyl)-S-(2-((2,2-dioxido-2-thiaspiro[3.3]heptan-6-yl)amino)-pyrimidin-4-yl)thiazol-4-yl)-2-fluoro-phenyl)-4-methoxyisoindoline-2-sulfonamide]

Source: patent publication US20260274833A1 (NiKang Therapeutics, Inc., priority 2022, published 2026)
